Here are results for 6 compounds from PubChem BioAssay AID248 (DTP/NCI, 2004).

Where “and” joins values, the source holds several entries; their conditions need not be identical. Identical values can stand only once. Toxic doses and inconclusive results are not listed.

This assay has as its system L1210 leukemia ip in BDF1 mice, survival T/C. As to the kind of experiment: NCI In Vivo Anticancer Drug Screen. Data for tumor model L1210 Leukemia (intraperitoneal) in B6D2F1 (BDF1) mice. Particulars: endpoint: mean survival time, higher = longer survival. A digest of the protocol:
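Ratio derived from survival: compound-dosed mice over vehicle-dosed mice, all bearing a transplantable tumor.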

The mark [1] stands for this setting: dose: 50.0 mg/kg/injection, schedule: Q01DX001 (ip), vehicle: carboxymethylcellulose (CMC).
The mark [2] stands for this setting: dose: 100.0 mg/kg/injection, schedule: Q01DX001 (ip), vehicle: carboxymethylcellulose (CMC).

On to `CCNC(=O)Oc1ccc(S(=O)(=O)F)cc1Cl`, for which the T/C is, setting by setting: (dose: 25.0 mg/kg/injection, schedule: Q01DX001 (ip), vehicle: carboxymethylcellulose (CMC)) 91 % of control; under setting [1], 107 % of control; under setting [2], 98 % of control and 100 % of control.

For the compound `C/C=C(\C)C#N`, the T/C runs as follows: (dose: 22.0 mg/kg/injection, schedule: Q01DX Z (ip), vehicle: saline) 102 % of control; (dose: 33.0 mg/kg/injection, schedule: Q01DX Z (ip), vehicle: saline) 93 % of control.

On to `NCCCCNc1ncnc2c1ncn2C1OC(CO)C(O)C1O` (stereo unspecified), for which the T/C (dose: 100.0 mg/kg/injection, schedule: Q01DX005 (ip), vehicle: saline) was 104 % of control and the T/C (dose: 200.0 mg/kg/injection, schedule: Q01DX005 (ip), vehicle: saline) is 116 % of control.

`Nc1ccccc1NC(=O)C(F)(F)F`: the T/C under setting [1] is 93 % of control; the T/C under setting [2] was 97 % of control; the T/C (dose: 200.0 mg/kg/injection, schedule: Q01DX001 (ip), vehicle: carboxymethylcellulose (CMC)) is 98 % of control; the T/C (dose: 400.0 mg/kg/injection, schedule: Q01DX001 (ip), vehicle: carboxymethylcellulose (CMC)) is 108 % of control.

Regarding `O=C(O)c1cc(Br)cc(I)c1Cl`, the T/C by setting is: (dose: 100.0 mg/kg/injection, schedule: Q04DX002 (ip), vehicle: Klucel (hydroxypropylcellulose) (HPC)) 102 % of control; (dose: 200.0 mg/kg/injection, schedule: Q04DX002 (ip), vehicle: Klucel (hydroxypropylcellulose) (HPC)) 94 % of control.

Turning to `CC=NC(C)(C)C`, the T/C runs as follows: (dose: 12.5 mg/kg/injection, schedule: Q01DX009 (ip), vehicle: saline with Tween-80) 91 % of control; (dose: 25.0 mg/kg/injection, schedule: Q01DX009 (ip), vehicle: saline with Tween-80) 94 % of control; (dose: 50.0 mg/kg/injection, schedule: Q01DX009 (ip), vehicle: saline with Tween-80) 95 % of control and 91 % of control.
